Assay results from patent US8937152B2, “Non-selective somatostatin analogues” (Italfarmaco SpA, priority 2007, dated 2015).
Read-outs that look alike come from different tables or passages of the source. *1 amine or outer side, *2 acyl side, *3 side chain or, on linkers, in order; H or OH if unused. Where a SMILES comes first, the peptide text is derived from it. Side-chain parts run from the residue outwards. [ ]: non-standard residue; d: D form. The star is where a group is joined. Ethylenediamine = C(CN[*:2])N[*:1]; Hyp = O=C(O)[C@@H]1C[C@@H](O)CN1; Phg = N[C@H](C(=O)O)c1ccccc1; CO = O=C([*:1])[*:2]; Bn = c1ccc(C*)cc1

Columns and labels:
rat pituitary cells = conditions: 3 h
[1] = Pharmacokinetic profile in rats, subcutaneous; type: in vivo; conditions: rat, sc, male rats, 1 mg/kg, plasma; for half-life: read-out: t½ (converted)
Protocol: Assay for the Pharmacokinetic Profile
The compounds of the invention also show, in rats, a very favourable pharmacokinetic profile. The pharmacokinetic profile was measured by administering the compounds to male rates, subcutaneously, at the dose of 1 mg/kg (CD, Sprague Dawley; 200-250 g). Blood samples were collected, at different times, up to 72 hours after the administration. The concentrations of the compound under examination were measured in the separated plasma samples, by means of an LC-MS/MS analysis method and the values were processed according to a non-compartmental model using the software “Kinetica”. In the following table, the main pharmacokinetic parameters obtained with the compound of example 1 are reported, compared with those obtained with PASIREOTIDE, another stable analogue of somatostatin, currently in clinical development phase (PASIREOTIDE was prepared by following the process described in WO2002010192).

hSSTR1 = biological target: T1, hSSTR1 (Homo sapiens, UniProt P30872); assay: Binding assay, displacement of 3-[125I]iodotyrosyl11 Somatostatin-14; conditions: recombinant human receptor, cell membranes; 60 min at 25° C.
T1 construct: expressed in transfected cells
Protocol: (§1) The binding assays were carried out, as is explained below, by using preparations of recombinant human receptors, hSSTR1, hSSTR2, hSSTR3 and hSSTR5, obtained from cell membranes (for example CHO) transfected according to standard methods.
(§2) The membranes are incubated in duplicate for 60 min. at 25° C. with 3-[125I]iodotyrosyl11Somatostatin-14 (Amersham, IM161, 2000 Ci/mmol) as radioligand and with increasing concentrations of the compound under examination, in 25 mM Hepes (pH 7.4) buffer, containing 5 mM MgCl2, 1 mM CaCl2, 10 μg/ml of Saponin, 0.5% BSA. The incubation is terminated by means of filtration with a Filtermate Harvester (Perkin Elmer) through GF/B filters, which are then washed 6 times with buffer (25 mM Hepes pH 7.4, 5 mM MgCl2, 1 mM CaCl2). The radioactivity of the filters is measured in a TopCount™ or MicroBeta™ reader for 1 min/well after having added the Microscint 20 liquid scintillation (Packard) and incubated for 15 min. in an orbital stirrer. The results are expressed as specific binding percentage of the radio-marked ligand, in the presence of increasing concentrations of the compound under examination. The IC50 values were calculated by using the “GraphPad Prism” software (IC50=concentration of compound necessary for obtaining half of the maximum inhibition, in the competitive binding test described above).

hSSTR2 = biological target: T2, hSSTR2 (Homo sapiens, UniProt P30874); assay: as above; conditions: cell membranes, 60 min at 25° C.
T2 construct: expressed in transfected cells
Protocol: as §1, §2

hSSTR5 = biological target: T3, hSSTR5 (Homo sapiens, UniProt P35346); assay: as above; conditions: cell membranes, 60 min at 25° C.
T3 construct: expressed in transfected cells
Protocol: as §1, §2

hSSTR3 = biological target: T4, hSSTR3 (Homo sapiens, UniProt P32745); assay: as above; conditions: cell membranes, 60 min at 25° C.
T4 construct: expressed in transfected cells
Protocol: as §1, §2

[2] = comparison value, source and conditions not stated; cited from earlier work
[3] = system: release of GH stimulated by Nembutal; assay: In vivo inhibition of the GH production stimulated by barbiturates (Nembutal); set-up: species or system rat; conditions: male rats, subcutaneous
Protocol: Assay for the In Vivo Inhibition of the GH Production, Stimulated by Barbiturates
The compounds are administrated subcutaneously, at different doses, in male rats (CD, Harlan Italy). Blood samples are collected, at different times, one hour after the animals were anesthetised by means of intraperitoneal administration of Nembutal (60 mg/kg); the hormone levels are measured by means of the ELISA test. In the animals treated with the compounds of the invention, at doses from 5 to 250 μg/kg, there is a decrease of the produced GH levels.

[4] = recombinant human receptor, read-out: IC50 (nM) hSSTR2
[5] = recombinant human receptor, read-out: IC50 (nM) hSSTR5
[6] = recombinant human receptor, read-out: IC50 (nM) hSSTR3

T4 sequence (P32745 whole entry): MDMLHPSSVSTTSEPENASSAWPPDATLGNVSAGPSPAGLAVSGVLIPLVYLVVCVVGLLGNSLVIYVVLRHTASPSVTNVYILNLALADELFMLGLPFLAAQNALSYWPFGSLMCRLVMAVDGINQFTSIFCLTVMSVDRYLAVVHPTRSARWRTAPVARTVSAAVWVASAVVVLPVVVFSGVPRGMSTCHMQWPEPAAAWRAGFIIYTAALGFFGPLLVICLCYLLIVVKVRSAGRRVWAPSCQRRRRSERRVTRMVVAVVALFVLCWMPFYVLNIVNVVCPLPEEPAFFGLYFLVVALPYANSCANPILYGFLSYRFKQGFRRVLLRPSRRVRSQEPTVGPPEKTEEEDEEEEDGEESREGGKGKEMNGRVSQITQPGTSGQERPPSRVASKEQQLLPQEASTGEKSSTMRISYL
T2 sequence (P30874 whole entry): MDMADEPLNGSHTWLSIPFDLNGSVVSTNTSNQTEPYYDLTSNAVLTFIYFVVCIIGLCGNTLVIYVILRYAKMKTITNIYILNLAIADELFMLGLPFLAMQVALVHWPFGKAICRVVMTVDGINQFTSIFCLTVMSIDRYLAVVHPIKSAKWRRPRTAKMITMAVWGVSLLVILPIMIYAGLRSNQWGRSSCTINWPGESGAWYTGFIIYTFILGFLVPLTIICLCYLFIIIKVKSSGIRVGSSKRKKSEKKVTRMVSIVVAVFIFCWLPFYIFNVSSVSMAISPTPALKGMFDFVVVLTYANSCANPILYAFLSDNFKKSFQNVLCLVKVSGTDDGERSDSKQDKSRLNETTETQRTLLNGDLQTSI
T3 sequence (P35346 whole entry): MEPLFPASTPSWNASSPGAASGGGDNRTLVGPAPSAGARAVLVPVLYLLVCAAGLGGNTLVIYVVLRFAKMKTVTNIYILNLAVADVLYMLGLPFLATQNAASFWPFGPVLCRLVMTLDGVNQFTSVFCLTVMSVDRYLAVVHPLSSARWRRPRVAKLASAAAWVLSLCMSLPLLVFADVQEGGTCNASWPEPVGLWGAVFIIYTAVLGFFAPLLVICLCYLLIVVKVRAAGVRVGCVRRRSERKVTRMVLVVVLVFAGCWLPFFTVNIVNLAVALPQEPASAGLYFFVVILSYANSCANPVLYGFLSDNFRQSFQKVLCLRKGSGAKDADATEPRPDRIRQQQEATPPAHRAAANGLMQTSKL
T1 sequence (P30872 whole entry): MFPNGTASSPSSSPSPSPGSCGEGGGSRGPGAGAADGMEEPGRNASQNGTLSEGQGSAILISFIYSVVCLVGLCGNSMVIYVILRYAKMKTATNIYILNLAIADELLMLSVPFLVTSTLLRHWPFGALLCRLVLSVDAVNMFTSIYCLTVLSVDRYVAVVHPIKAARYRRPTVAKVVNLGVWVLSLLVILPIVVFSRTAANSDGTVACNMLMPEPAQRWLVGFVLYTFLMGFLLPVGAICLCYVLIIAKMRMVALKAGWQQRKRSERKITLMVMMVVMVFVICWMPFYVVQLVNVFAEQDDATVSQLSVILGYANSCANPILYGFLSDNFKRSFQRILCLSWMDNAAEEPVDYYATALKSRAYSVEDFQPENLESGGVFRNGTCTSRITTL

IC50 (hSSTR1) [nM]	IC50 (hSSTR2; [4]) [nM]	IC50 (hSSTR5; [5]) [nM]	IC50 (hSSTR3; [6]) [nM]	Compound	also measured
10.8	9.3	0.42	0.31	COc1cc2cccc(OC)c2cc1CC1NC(=O)[C@H](Cc2ccccc2)NC(=O)[C@@H]2C[C@@H](OC(=O)NCCN)CN2C(=O)[C@H](Cc2ccccc2)NC(=O)[C@H](Cc2ccc(OCc3ccccc3)cc2)NC(=O)[C@H](CCCCN)NC1=O (single isomer, unassigned) [Example 5, cyclo[Tyr(Bn)-Phe-Pro(4-OCONH(CH2)2NH2)-Phe-(D,L)3,8MNal-Lys]]	IC50 (rat pituitary cells): 1.3 nM; AUC ([1]; CD, Sprague Dawley): 2880 ng·h/mL; AUC(0-t) ([1]; CD, Sprague Dawley): 2730 ng·h/mL; Cmax ([1]; CD, Sprague Dawley): 224 ng/mL; MRT ([1]; CD, Sprague Dawley): 19 h; Tmax ([1]; CD, Sprague Dawley): 4 h; half-life ([1]; CD, Sprague Dawley): 31.3 h
10	25.8	0.64	0.52	COc1ccc(OC)c(CCC2NC(=O)[C@H](Cc3ccccc3)NC(=O)[C@@H]3C[C@@H](OC(=O)NCCN)CN3C(=O)[C@H](Cc3ccccc3)NC(=O)[C@H](Cc3ccc(OCc4ccccc4)cc3)NC(=O)[C@H](CCCCN)NC2=O)c1 (single isomer, unassigned) [Example 6, cyclo[Tyr(Bn)-Phe-Pro(4-OCONH(CH2)2NH2)-Phe-(D,L)2,5 MhPhe-Lys]]	–
5.8	9.2	0.97	1.33	CNCCNC(=O)O[C@@H]1C[C@H]2C(=O)N[C@@H](Cc3ccccc3)C(=O)NC(Cc3cc4c(OC)cccc4cc3OC)C(=O)N[C@@H](CCCCN)C(=O)N[C@@H](Cc3ccc(OCc4ccccc4)cc3)C(=O)N[C@@H](Cc3ccccc3)C(=O)N2C1 (single isomer, unassigned) [Example 7, cyclo[Tyr(Bn)-Phe-Pro (4-OCONH(CH2)2NHCH3)-Phe-(D,L)3,8MNal-Lys]]	–
19.1	26.6	9.78	2.92	COc1cc(CC2NC(=O)[C@H](Cc3ccccc3)NC(=O)[C@@H]3C[C@@H](OC(=O)NCCN)CN3C(=O)[C@H](Cc3ccccc3)NC(=O)[C@H](Cc3ccc(OCc4ccccc4)cc3)NC(=O)[C@H](CCCCN)NC2=O)c(OC)c2ccccc12 (single isomer, unassigned) [Example 8, cyclo[Tyr(Bn)-Phe-Pro(4-OCONH(CH2)2NH2)-Phe-(D,L)1,4-MNal-Lys]]	–
32.4	9.9	1.9	2.34	COc1cc(CC2NC(=O)[C@H](Cc3ccccc3)NC(=O)[C@@H]3C[C@@H](OC(=O)NCCN)CN3C(=O)[C@H](Cc3ccccc3)NC(=O)[C@H](Cc3ccc(OCc4ccccc4)cc3)NC(=O)[C@H](CCCCN)NC2=O)c(OC)c2ccccc12 (single isomer, unassigned) [Example 9, cyclo[Tyr(Bn)-Phe-Pro(4-OCONH(CH2)2NH2)-Phe-(D,L)1,4-MNal-Lys]]	–
1	7	1.62	1.8	COc1cc2cccc(OC)c2cc1CC1NC(=O)[C@H](Cc2ccccc2)NC(=O)[C@@H]2C[C@@H](OC(=O)NCCN)CN2C(=O)[C@H](Cc2ccccc2)NC(=O)[C@H](COCc2ccccc2)NC(=O)[C@H](CCCCN)NC1=O (single isomer, unassigned) [Example 15, cyclo[Ser(Bn)-Phe-Pro(4-OCONH(CH2)2NH2)-Phe-(D,L)3,8MNal-Lys]]	–
–	–	–	–	COc1cc2cccc(OC)c2cc1CC1NC(=O)[C@H](Cc2ccc(O)cc2)NC(=O)[C@@H]2C[C@@H](OC(=O)NCCN)CN2C(=O)[C@H](Cc2ccccc2)NC(=O)[C@H](Cc2ccc(OCc3ccccc3)cc2)NC(=O)[C@H](CCCCN)NC1=O (stereo partly shown) [Example 14, cyclo[Tyr(Bn)-Phe-Pro(4-OCONH(CH2)2NH2)-Tyr-(D,L)3,8MNal-Lys]]	IC50 (hSSTR2; IC50 (nM) hSSTR2, recombinant human receptor): 1.8 nM; IC50 (hSSTR5; IC50 (nM) hSSTR5, recombinant human receptor): 0.36 nM; IC50 (hSSTR3; IC50 (nM) hSSTR3, recombinant human receptor): 0.35 nM
–	–	–	–	C[C@@H](O)[C@@H]1NC(=O)[C@H](CCCCN)NC(=O)[C@@H](Cc2c[nH]c3ccccc23)NC(=O)[C@H](Cc2ccccc2)NC(=O)[C@@H](NC(=O)[C@H](N)Cc2ccccc2)CSSC[C@@H](C(=O)N[C@H](CO)[C@@H](C)O)NC1=O [OCTREOTIDE]	t½ [2]: about 2 hours
–	–	–	–	NCCCC[C@@H]1NC(=O)[C@@H](Cc2c[nH]c3ccccc23)NC(=O)[C@H](c2ccccc2)NC(=O)[C@@H]2C[C@@H](OC(=O)NCCN)CN2C(=O)[C@H](Cc2ccccc2)NC(=O)[C@H](Cc2ccc(OCc3ccccc3)cc2)NC1=O [PASIREOTIDE, reference compound] (cyclo([Hyp]([CO-Ethylenediamine])[Phg][dW]KY(Bn)F))	AUC ([1]; Sprague Dawley (CD)): 2800 ng·h/mL; AUC(0-t) ([1]; Sprague Dawley (CD)): 2780 ng·h/mL; Cmax ([1]; Sprague Dawley (CD)): 668 ng/mL; MRT ([1]; Sprague Dawley (CD)): 4.87 h; Tmax ([1]; Sprague Dawley (CD)): 2 h; half-life ([1]; Sprague Dawley (CD)): 24.4 h
–	–	–	–	Fmoc-(D/L) 3-(3,8-dimethoxy-Naphthalene-2-yl)-Alanine [Example 1]	reduction of the release of GH ([3]; 5 μg/kg, six hours after the administration): 55%; reduction of GH, duration ([3]; 125 μg/kg, 24 hours after the administration): still measurable
